Assay results reported in PubChem BioAssay (NCI).
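GI50: concentration for 50% inhibition of growth. TGI denotes the concentration required for complete inhibition of growth.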

Tests used:
Test in all cases: DTP human tumour cell line panel, 384-well format
786-0 renal = tested on: 786-0 renal
A498 renal = tested on: A498 renal
A549 NSCLC = tested on: A549 NSCLC
ACHN renal = tested on: ACHN renal
BT-549 breast = tested on: BT-549 breast
CAKI-1 renal = tested on: CAKI-1 renal
CCRF-CEM leukemia = tested on: CCRF-CEM leukemia
COLO 205 colon = tested on: COLO 205 colon
DU-145 prostate = tested on: DU-145 prostate
EKVX NSCLC = tested on: EKVX NSCLC
HCC-2998 colon = tested on: HCC-2998 colon
HCT-116 colon = tested on: HCT-116 colon
HCT-15 colon = tested on: HCT-15 colon
HL-60(TB) leukemia = tested on: HL-60(TB) leukemia
HOP-62 NSCLC = tested on: HOP-62 NSCLC
HOP-92 NSCLC = tested on: HOP-92 NSCLC
HS 578T breast = tested on: HS 578T breast
HT29 colon = tested on: HT29 colon
IGROV1 ovarian = tested on: IGROV1 ovarian
KM12 colon = tested on: KM12 colon
LOX IMVI melanoma = tested on: LOX IMVI melanoma
M14 melanoma = tested on: M14 melanoma
MALME-3M melanoma = tested on: MALME-3M melanoma
MCF7 breast = tested on: MCF7 breast
MDA-MB-231 breast = tested on: MDA-MB-231 breast
MDA-MB-435 melanoma = tested on: MDA-MB-435 melanoma
MDA-MB-468 breast = tested on: MDA-MB-468 breast
MOLT-4 leukemia = tested on: MOLT-4 leukemia
NCI-H226 lung = tested on: NCI-H226 lung

Q: How did the GI50 (786-0 renal) turn out when CC(O)c1cc(C(=O)N[C@@H](C)Cn2ccc(-c3ccc(C#N)c(Cl)c3)n2)n[nH]1 (stereo partly drawn) was run?
A: Its GI50 is over 100 µM.

Q: What about the TGI (786-0 renal) of the same compound?
A: Its TGI is over 100 µM.

Q: What about the GI50 (A498 renal) of the same compound?
A: The GI50 was over 100 µM.

Q: And the TGI (A498 renal)?
A: The TGI was over 100 µM.

Q: And the GI50 (A549 NSCLC)?
A: Its GI50 is over 93.4 µM.

Q: What about the TGI (A549 NSCLC) of the same compound?
A: The TGI was over 100 µM.

Q: What about the GI50 (ACHN renal) of the same compound?
A: Its GI50 is over 46.4 µM.

Q: And the TGI (ACHN renal)?
A: Its TGI is over 69.6 µM.

Q: And the GI50 (BT-549 breast)?
A: Its GI50 is 36.7 µM.

Q: And the TGI (BT-549 breast)?
A: Its TGI is 98.6 µM.

Q: What about the GI50 (CAKI-1 renal) of the same compound?
A: Its GI50 is over 88.3 µM.

Q: What about the TGI (CAKI-1 renal) of the same compound?
A: The TGI was over 100 µM.

Q: What about the GI50 (CCRF-CEM leukemia) of the same compound?
A: Its GI50 is 31.5 µM.

Q: And the TGI (CCRF-CEM leukemia)?
A: Its TGI is over 100 µM.

Q: What about the GI50 (COLO 205 colon) of the same compound?
A: Its GI50 is over 82.6 µM.

Q: What about the TGI (COLO 205 colon) of the same compound?
A: Its TGI is over 100 µM.

Q: What about the GI50 (DU-145 prostate) of the same compound?
A: Its GI50 is over 100 µM.

Q: What about the TGI (DU-145 prostate) of the same compound?
A: Its TGI is over 100 µM.

Q: What about the GI50 (EKVX NSCLC) of the same compound?
A: The GI50 was 34.8 µM.

Q: What about the TGI (EKVX NSCLC) of the same compound?
A: The TGI was over 100 µM.

Q: And the GI50 (HCC-2998 colon)?
A: Its GI50 is over 100 µM.

Q: What about the TGI (HCC-2998 colon) of the same compound?
A: The TGI was over 100 µM.

Q: And the GI50 (HCT-116 colon)?
A: Its GI50 is 33.8 µM.

Q: What about the TGI (HCT-116 colon) of the same compound?
A: Its TGI is over 100 µM.

Q: What about the GI50 (HCT-15 colon) of the same compound?
A: Its GI50 is 59 µM.

Q: And the TGI (HCT-15 colon)?
A: Its TGI is over 100 µM.

Q: And the GI50 (HL-60(TB) leukemia)?
A: Its GI50 is 28.9 µM.

Q: What about the TGI (HL-60(TB) leukemia) of the same compound?
A: Its TGI is over 61.9 µM.

Q: What about the GI50 (HOP-62 NSCLC) of the same compound?
A: Its GI50 is over 67.6 µM.

Q: What about the TGI (HOP-62 NSCLC) of the same compound?
A: Its TGI is over 100 µM.

Q: And the GI50 (HOP-92 NSCLC)?
A: The GI50 was over 100 µM.

Q: What about the TGI (HOP-92 NSCLC) of the same compound?
A: The TGI was over 100 µM.

Q: And the GI50 (HS 578T breast)?
A: The GI50 was 65.6 µM.

Q: What about the TGI (HS 578T breast) of the same compound?
A: Its TGI is over 100 µM.

Q: And the GI50 (HT29 colon)?
A: Its GI50 is over 100 µM.

Q: And the TGI (HT29 colon)?
A: Its TGI is over 100 µM.

Q: What about the GI50 (IGROV1 ovarian) of the same compound?
A: Its GI50 is over 100 µM.

Q: What about the TGI (IGROV1 ovarian) of the same compound?
A: The TGI was over 100 µM.

Q: And the GI50 (KM12 colon)?
A: Its GI50 is over 92.4 µM.

Q: And the TGI (KM12 colon)?
A: Its TGI is over 100 µM.

Q: What about the GI50 (LOX IMVI melanoma) of the same compound?
A: Its GI50 is 40.2 µM.

Q: What about the TGI (LOX IMVI melanoma) of the same compound?
A: The TGI was over 100 µM.

Q: What about the GI50 (M14 melanoma) of the same compound?
A: Its GI50 is over 83.3 µM.

Q: And the TGI (M14 melanoma)?
A: Its TGI is over 100 µM.

Q: What about the GI50 (MALME-3M melanoma) of the same compound?
A: The GI50 was over 56.3 µM.

Q: And the TGI (MALME-3M melanoma)?
A: The TGI was over 100 µM.

Q: What about the GI50 (MCF7 breast) of the same compound?
A: The GI50 was 57.7 µM.

Q: And the TGI (MCF7 breast)?
A: The TGI was over 100 µM.

Q: And the GI50 (MDA-MB-231 breast)?
A: The GI50 was 42.1 µM.

Q: What about the TGI (MDA-MB-231 breast) of the same compound?
A: The TGI was over 100 µM.

Q: What about the GI50 (MDA-MB-435 melanoma) of the same compound?
A: The GI50 was over 74.1 µM.

Q: What about the TGI (MDA-MB-435 melanoma) of the same compound?
A: Its TGI is over 100 µM.

Q: What about the GI50 (MDA-MB-468 breast) of the same compound?
A: Its GI50 is 12 µM.

Q: What about the TGI (MDA-MB-468 breast) of the same compound?
A: Its TGI is 42 µM.

Q: And the GI50 (MOLT-4 leukemia)?
A: The GI50 was 15.2 µM.

Q: What about the TGI (MOLT-4 leukemia) of the same compound?
A: The TGI was 29 µM.

Q: And the GI50 (NCI-H226 lung)?
A: The GI50 was 35.6 µM.

Q: What about the TGI (NCI-H226 lung) of the same compound?
A: The TGI was over 75.9 µM.
